Assay results reported in patent publication EP0145177A2, “Chemotherapeutic agents based on rhizoxin” (priority 1983, dated 1985).

Key:
[1] = Toxicity by intraperitoneal injection into mice; details: mouse, in vivo, ip, C3H/He mice, read-out: LDS 0 value
Description: The toxicity of Rhizoxin was examined by the intraperitoneal injection of said compound into C3H/He mice, and as the LDS 0 value was above 5 mg/kg, it may be mentioned that the value is far above the dosage usually given in treatment.

[2] = system: ascites tumor MH-134 cells due to the cancer of the liver; experiment: Antitumor activity against ascites tumor MH-134 in mice (Test Example 1); assay type: in vivo, C3H/He mice; details: for Average life span: once a day for 10 days from 24 hours after inoculation, control 17.2 days; for T/C (%): once a day for 10 days, ratio of average life span, treated/control x 100
Description: 1 x 10^6 of ascites tumor MH-134 cells due to the cancer of the liver were intraperitoneally inoculated into C3H/He mice (8 weeks old, each group 6 mice). Rhizoxin was dissolved with the addition of a small quantity of ethyl alcohol (not more than 1 volume percent on the basis of the total volume of the final solution), and further dissolved in a 0.85 X aqueous physiological sodium chloride solution containing 0.05 % of Tween 20. This solution was aseptically filtered, and 24 hours after the tumor inoculation, the solution was intraperitoneally administered to the mice continually for 10 days at a rate of 0.2 ml/mouse once a day. The antitumor activity of Rhizoxin was evaluated on the basis of the ratio (T/C) x 100 wherein T is the average life span of the Rhizoxin administered groups and C is the average life span of the control group.

Solubility in solvents = assay type: physicochemical
leukemia P-388 cells = experiment: Antitumor activity against Vincristine sensitive leukemia P-388 in mice (Test Example 4); assay type: in vivo, CDF1 mice; details: for ILS (%): P-388
Text: (§1) Vincristine resistant or sensitive leukemia P-388 cells (1 x 10^6 cells) were intraperitoneally inoculated into CDF1 mice. Intraperitoneal administration of Rhizoxin and Vincristine was made on 1, 6 and 9 days after the tumor inoculation. The result is shown in Table 4 in terms of a percentage of an increase in the average life span of the treated mice over that of the control mice.

B-16 melanoma = experiment: Tumor growth inhibition of B-16 melanoma in mice (Test Example 3); assay type: in vivo, BDF1 mice; details: daily for 4 days, based on tumor weight from tumor diameter
Description: Tumor fragments of B-16 melanoma were subcutaneously inoculated into BDF1 mice. Intraperitoneal administration of Rhizoxin was begun 24 hours after the tumor inoculation and continued daily for 4 days.
The-result is shown in Table 3 in terms of a percentage of tumor growth inhibition based on the tumor weight which can be obtained from the measurement of the tumor diameter.

[3] = system: plant pathogenic bacteria; experiment: Multiplication of plant pathogenic bacteria; assay type: cell-based; details: bacteria that are prokaryotes
Description: (§2) Rhizoxin has an action which can induce the characteristic symptoms of rice seedling blight, even at an extremely low concentration (10 ng/ml).

rice seedling = experiment: Induction of the characteristic symptoms of rice seedling blight; assay type: in vivo; details: Oryza sativa; extremely low concentration at which the action is still seen; read-out: concentration that can induce the characteristic symptoms of rice seedling blight
Description: as §2

[4] = system: Vincristine resistant leukemia P-388 cells (P-388/VCR); experiment: Antitumor activity against Vincristine resistant leukemia P-388 in mice (Test Example 4); assay type: in vivo, CDF1 mice; details: for ILS (%): P-388/VCR; for effectiveness against Vincristine resistant leukemia P-388: summary in words of Table 4
Text: as §1

Leukemia L-1210 cells = experiment: Antitumor activity against leukemia L-1210 in mice (Test Example 2); assay type: in vivo, CDF1 mice; details: daily for 4 days; for ILS (%): increase in life span over control
Description: Leukemia L-1210 cells (1 x 10^5 cells) were intraperitoneally inoculated into CDF1 mice. Intraperitoneal administration of Rhizoxin was started 24 hours after the tumor inoculation and continued daily for 4 days. The result is shown in Table 2 in terms of a percentage of an increase in the life span of the treated mice over that of the control mice (ILS).

plants other than rice = experiment: Growth of the root of plants other than rice; details: in vivo
Description: as §2

plant pathogenic fungi = experiment: Growth of plant pathogenic fungi; assay type: cell-based
Description: as §2

[5] = 15 mcg/Kg/day intraperitoneally
[6] = 150 mcg/Kg/day intraperitoneally
[7] = 0.75 mg/Kg/day intraperitoneally on 1, 6 and 9 days after inoculation
[8] = 1.0 mg/Kg/day intraperitoneally on 1, 6 and 9 days after inoculation
[9] = 1.5 mg/Kg/day intraperitoneally on 1, 6 and 9 days after inoculation
[10] = 0.25 mg/Kg/day intraperitoneally
[11] = 0.5 mg/Kg/day intraperitoneally
[12] = 1.0 mg/Kg/day intraperitoneally
[13] = 2.0 mg/Kg/day intraperitoneally on 1, 6 and 9 days after inoculation

SMILES: CO[C@@H](/C(C)=C/C=C/C(C)=C/c1coc(C)n1)[C@@H](C)[C@@H]1C[C@H](O)[C@@]2(C)O[C@@H]2/C=C/[C@@H](C)[C@H]2C[C@H](CC(=O)O2)C[C@@H]2O[C@H]2C(=O)O1 [Rhizoxin]
- LD50 [1]: > 5 mg/kg
- Average life span [2, 5]: 31.8 days
- T/C (%) [2, 5]: 185%
- Average life span [2, 6]: 47.8 days
- T/C (%) [2, 6]: 278%
- Solubility in solvents (Solubility in solvents; benzene, chloroform, acetone, alcohol, etc.): Easily soluble
- Solubility in solvents (Solubility in solvents; water, n-hexane): sparingly soluble
- ILS (%) (leukemia P-388 cells; 0.5 mg/Kg/day intraperitoneally on 1, 6 and 9 days after inoculation): 46.2%
- ILS (%) (leukemia P-388 cells; [7]): 65.6%
- ILS (%) (leukemia P-388 cells; [8]): 82.9%
- ILS (%) (leukemia P-388 cells; [9]): 123.7%
- ILS (%) (leukemia P-388 cells; 3.0 mg/Kg/day intraperitoneally on 1, 6 and 9 days after inoculation): toxic
- effectiveness against leukemia P-388 (leukemia P-388 cells; summary in words of Table 4): effective
- Tumor growth inhibition (%) (B-16 melanoma; [10]): 38%
- Tumor growth inhibition (%) (B-16 melanoma; [11]): 68%
- Tumor growth inhibition (%) (B-16 melanoma; [12]): 62%
- action on the multiplication of the plant pathogenic bacteria [3]: no recognizable action
- minimal effective concentration (rice seedling): 0.01 µg/mL
- ILS (%) [4, 7]: 28.2%
- ILS (%) [4, 8]: 35.9%
- ILS (%) [4, 9]: 57.3%
- ILS (%) [4, 13]: 61.2%
- ILS (%) ([4]; 4.0 mg/Kg/day intraperitoneally on 1, 6 and 9 days after inoculation): toxic
- effectiveness against Vincristine resistant leukemia P-388 [4]: clearly effective
- Change in body weight (g) (day 1-7) (Leukemia L-1210 cells; [10]): +0.4 g
- ILS (%) (Leukemia L-1210 cells; [10]): 43%
- Change in body weight (g) (day 1-7) (Leukemia L-1210 cells; [11]): -0.7 g
- ILS (%) (Leukemia L-1210 cells; [11]): 67%
- Change in body weight (g) (day 1-7) (Leukemia L-1210 cells; [12]): -2.9 g
- ILS (%) (Leukemia L-1210 cells; [12]): 81%
- ILS (%) (Leukemia L-1210 cells; 2.0 mg/Kg/day intraperitoneally): toxic
- action on the growth of the root of the plants other than rice (plants other than rice): check the growth of the root
- action on the growth of plant pathogenic fungi (plant pathogenic fungi): inhibits the growth

SMILES: CC[C@]1(O)C[C@H]2CN(CCc3c([nH]c4ccccc34)[C@@](C(=O)OC)(c3cc4c(cc3OC)N(C=O)[C@H]3[C@@](O)(C(=O)OC)[C@H](OC(C)=O)[C@]5(CC)C=CCN6CC[C@]43[C@@H]65)C2)C1 [Vincristine, reference compound]
- ILS (%) [4, 8]: 6.8%
- ILS (%) [4, 13]: toxic
- effectiveness against Vincristine resistant leukemia P-388 [4]: not affected
